According to EP0465913B1, “Diaminotrifluoromethylpyrimidine derivatives, process for their production and phospholipase A2 inhibitor containing them” (ISHIHARA SANGYO KAISHA, LTD., priority 1990, dated 1992):
Several values for one entry are separate records, joined by “and”; a condition that tells them apart may be missing. Equal entries are not always repeated. Structures can show the parent of a compound that is named as a salt.

Experiments:
[1] = system: experimental acute pancreatitis model; assay: Effects against acute pancreatitis (Test Example 7, closed duodenal loop method, gross pathological examination); assay type: in vivo, Crj-CD male rats; set-up: key: -: No significant lesions; ±: Minimal; +: Light; ++: Moderate; +++: Marked; conditions: 40 mg per kg continuous intravenous injection, examination 3 hours after ventrotomy, individual rats
Experimental: (§1) Using Crj-CD male rats (for Compound No. 19, rats having a body weight of from 371 to 484 g were used, and for Compound No. 10, rats having a body weight of from 444 to 574 g were used), each test group consisted of 3 rats. An experimental acute pancreatitis model was prepared by a closed duodenal loop method under anesthesia with halothane (manufactured by Hoechst Japan) and nitrous oxide (manufactured by Sumitomo Seika K.K.) applied by means of a general inhalation anesthesia machine (Model EM-2 and halothane evaporator F-Model). Then, Compound No. 19 or Compound No. 10 was continuously intravenously injected into the tail vein in an amount of 50 mg per kg or 40 mg per kg, respectively, at a rate of 0.05 ml per minute by means of a pump (Technicon AA II Proportioning Pump III, manufactured by Technicon Instruments Corporation). No injection was made to a control group. Gross pathological examination was conducted upon expiration of 6 hours after the ventrotomy in the case of the test group to which Compound No. 19 was administered, or upon expiration of 3 hours after the ventrotomy in the case of the test group to which Compound No. 10 was administered. As a result, as shown in the following Table 12, the groups to which the compounds of the present invention were administered, show distinct usefulness for treating acute pancreatitis.

[2] = system: experimental acute pancreatitis model; assay: as above; assay type: in vivo, Crj-CD male rats; set-up: key to Pancreatic edema Distribution: -: No significant lesions; ± ∼ +++: Focal-diffuse; ± ∼ +++: Focal-diffuse; ± ∼ +++: Focal-diffuse; ± ∼ +++: Focal-diffuse; key to Pancreatic hemorrhage Petechia Grade / Pancreatic edema Grade: -: No significant lesions; ±: Minimal; +: Light; ++: Moderate; +++: Marked; conditions: 40 mg per kg continuous intravenous injection, examination 3 hours after ventrotomy, individual rats
Experimental: as §1

[3] = system: experimental acute pancreatitis model; assay: as above; assay type: in vivo, Crj-CD male rats; set-up: key: -: No significant lesions; ± ∼ +++: Focal-diffuse; ± ∼ +++: Focal-diffuse; ± ∼ +++: Focal-diffuse; ± ∼ +++: Focal-diffuse; conditions: 40 mg per kg continuous intravenous injection, examination 3 hours after ventrotomy, individual rats
Experimental: as §1

ddy male mice = assay: Acute toxicity, intravenous injection (LD50); assay type: in vivo; conditions: sodium salt, mortality over one week, 10080 min
Experimental: Administration route: Intravenous injection
Using ddy male mice (body weight: 25 - 30 g), each test group consisted of 5 mice. A test compound was dissolved in the form of a sodium salt in a physiological saline or in a 5% glucose aqueous solution, and intravenously injected in an amount of 0.1 ml/10 g body weight. After the injection, the mortality rate was obtained over one week, and the median lethal dose LD50 (mg/kg) was determined.

CS(=O)(=O)Nc1ncc(C(F)(F)F)cc1NC(=O)c1ccc(F)cc1 [Compound No. 10, N-(2-methylsulfonylamino-5-trifluoromethyl-3-pyridyl)-4-fluorobenzamide]
Pancreatic hemorrhage Petechia Distribution [1]: -
Pancreatic edema Distribution [2]: ± and + (2×)
Pancreatic edema Grade [2]: ± and + and ††
Pancreatic hemorrhage Petechia Grade [2]: ± and - and +
Pancreatic hemorrhage Petechia Distribution [3]: ± and +

CCS(=O)(=O)Nc1ncc(C(F)(F)F)cc1NC(=O)C1CCCCC1 [Compound No. 251, sodium salt of N-(2-ethylsulfonylamino-5-trifluoromethyl-3-pyridyl)cyclohexanecarboxamide]
LD50 (ddy male mice): 65 mg/kg
